In patent publication US20250049777A1, “PHARMACEUTICALLY ACCEPTABLE SALT AND CRYSTALLINE FORM OF GLP-1 RECEPTOR AGONIST AND PREPARATION METHOD THEREFOR” (JIANGSU HENGRUI PHARMACEUTICALS CO., LTD., priority 2021, published 2025):
Where a name gives a salt, the structure may show the parent alone. Read-outs that look alike come from different tables or passages of the source.

Columns and labels:
[1] = Hygroscopicity of crystal forms of salts (DVS, 25° C.); assay type: physicochemical; conditions: for Crystal form after DVS: 0% to 95% RH
From the text: According to the description of hygroscopic characteristics and the definition of hygroscopic weight gain in “9103 Guidelines for Hygroscopicity of Pharmaceuticals”, Chinese Pharmacopoeia, Volume IV, 2015 edition, the following are defined: • deliquescent: absorbing enough water to form a liquid; • extremely hygroscopic: having a hygroscopic weight gain of not less than 15%; • hygroscopic: having a hygroscopic weight gain of less than 15% and not less than 2%; • slightly hygroscopic: having a hygroscopic weight gain of less than 2% and not less than 0.2%; and • no or almost no hygroscopicity: having a hygroscopic weight gain of less than 0.2%.
Surface Measurement Systems intrinsic DVS was used at 25° C. The observed humidity ranged from 0% to 95%. The step was 10%. The criterion was that the mass change dM/dT for each step was less than 0.002%. TMAX was 360 min. Two cycles were carried out.

[2] = Stability of crystal forms of salts under influencing factors (illumination, high temperature, high humidity); assay type: physicochemical
From the text: The sampling and investigation period was 30 days.

[3] = assay type: physicochemical
Protocol: A salt-type sample was sealed with an aluminum foil bag and placed under the conditions of 25° C./60% RH and 40° C./75% RH, respectively, to investigate the stability.

[4] = Illumination (4500 Lux), 7 days, open
[5] = Illumination (4500 Lux), 14 days, open
[6] = Illumination (4500 Lux), 30 days, open
[7] = 25° C./60% RH, sealed aluminum foil bag
[8] = 40° C./75% RH, sealed aluminum foil bag
[9] = Illumination (4500 Lux), 5 days, open
[10] = Illumination (4500 Lux), 10 days, open

Compound: O=C(O)c1ccc2nc(CN3CCC(c4cccc5c4O[C@@H](c4ccc(Cl)cc4F)CO5)CC3)n(C[C@@H]3CCO3)c2c1 [Crystal form E of tromethamine salt, 2-((4-((S)-3-(4-chloro-2-fluorophenyl)-2,3-dihydrobenzo[b][1,4]dioxan-5-yl)piperidin-1-yl)methyl)-1-(((S)-oxetan-2-yl)methyl)-1H-benzo[d]imidazole-6-carboxylic acid]
- hygroscopic weight gain 0.0% RH to 80.0% RH [1]: 7.27%
- Crystal form after DVS [1]: Unchanged
- chemical stability [2]: slightly poor chemical stability
- physical stability [2]: slightly poor physical stability
- % Purity ([2]; 40° C., 7 days, open): 96.0%
- Crystal form ([2]; 40° C., 7 days, open): Unchanged
- % Purity ([2]; 40° C., 14 days, open): 93.6%
- Crystal form ([2]; 40° C., 14 days, open): Unchanged
- % Purity ([2]; 40° C., 30 days, open): 85.0%
- Crystal form ([2]; 40° C., 30 days, open): Unchanged
- % Purity ([2]; 60° C., 7 days, open): 94.8%
- Crystal form ([2]; 60° C., 7 days, open): Unchanged
- % Purity ([2]; 60° C., 30 days, open): 81.8%
- Crystal form ([2]; 60° C., 30 days, open): Amorphous form
- % Purity ([2]; 75% RH, 7 days, open): 98.3%
- Crystal form ([2]; 75% RH, 7 days, open): Unchanged
- % Purity ([2]; 75% RH, 14 days, open): 98.4%
- Crystal form ([2]; 75% RH, 14 days, open): Unchanged
- % Purity ([2]; 75% RH, 30 days, open): 98.3%
- Crystal form ([2]; 75% RH, 30 days, open): Unchanged
- % Purity ([2]; 92.5% RH, 7 days, open): 98.2%
- Crystal form ([2]; 92.5% RH, 7 days, open): Unchanged
- % Purity ([2]; 92.5% RH, 14 days, open): 98.2%
- Crystal form ([2]; 92.5% RH, 14 days, open): Unchanged
- % Purity ([2]; 92.5% RH, 30 days, open): 98.1%
- Crystal form ([2]; 92.5% RH, 30 days, open): Amorphous form
- % Purity [2, 4]: 98.1%
- Crystal form [2, 4]: Unchanged
- % Purity [2, 5]: 97.9%
- Crystal form [2, 5]: Unchanged
- % Purity [2, 6]: 95.5%
- Crystal form [2, 6]: Unchanged
- % Purity ([2]; Initial condition, 0 days): 98.3%
- physical and chemical stability [3]: good physical and chemical stability
- % Purity ([3]; 25° C./60% RH, 1 month, sealed aluminum foil bag): 98.2%
- % Purity ([3]; 25° C./60% RH, 2 months, sealed aluminum foil bag): 98.3%
- % Purity ([3]; 25° C./60% RH, 3 months, sealed aluminum foil bag): 98.1%
- Crystal form [3, 7]: Unchanged
- % Purity ([3]; 40° C./75% RH, 1 month, sealed aluminum foil bag): 97.7%
- % Purity ([3]; 40° C./75% RH, 2 months, sealed aluminum foil bag): 97.7%
- % Purity ([3]; 40° C./75% RH, 3 months, sealed aluminum foil bag): 97.2%
- Crystal form [3, 8]: Unchanged
- % Purity ([3]; Initial condition): 98.3%

Compound: O=C(O)c1ccc2nc(CN3CCC(c4cccc5c4O[C@@H](c4ccc(Cl)cc4F)CO5)CC3)n(C[C@@H]3CCO3)c2c1 [Crystal form I of tartrate salt, 2-((4-((S)-3-(4-chloro-2-fluorophenyl)-2,3-dihydrobenzo[b][1,4]dioxan-5-yl)piperidin-1-yl)methyl)-1-(((S)-oxetan-2-yl)methyl)-1H-benzo[d]imidazole-6-carboxylic acid]
- hygroscopic weight gain 0.0% RH to 80.0% RH [1]: 1.44%
- Crystal form after DVS [1]: Unchanged
- % Purity ([2]; 40° C., 5 days, open): 98.4%
- Crystal form ([2]; 40° C., 5 days, open): Unchanged
- % Purity ([2]; 40° C., 10 days, open): 98.1%
- Crystal form ([2]; 40° C., 10 days, open): Unchanged
- % Purity ([2]; 40° C., 30 days, open): 97.6%
- Crystal form ([2]; 40° C., 30 days, open): Unchanged
- % Purity ([2]; 60° C., 5 days, open): 97.9%
- Crystal form ([2]; 60° C., 5 days, open): Unchanged
- % Purity ([2]; 60° C., 10 days, open): 97.2%
- Crystal form ([2]; 60° C., 10 days, open): Unchanged
- % Purity ([2]; 60° C., 30 days, open): 96.4%
- Crystal form ([2]; 60° C., 30 days, open): Unchanged
- % Purity ([2]; 75% RH, 5 days, open): 98.6%
- Crystal form ([2]; 75% RH, 5 days, open): Unchanged
- % Purity ([2]; 75% RH, 10 days, open): 98.6%
- Crystal form ([2]; 75% RH, 10 days, open): Unchanged
- % Purity ([2]; 75% RH, 30 days, open): 98.4%
- Crystal form ([2]; 75% RH, 30 days, open): Unchanged
- % Purity ([2]; 92.5% RH, 5 days, open): 98.7%
- Crystal form ([2]; 92.5% RH, 5 days, open): Unchanged
- % Purity ([2]; 92.5% RH, 10 days, open): 98.6%
- Crystal form ([2]; 92.5% RH, 10 days, open): Unchanged
- % Purity ([2]; 92.5% RH, 30 days, open): 98.3%
- Crystal form ([2]; 92.5% RH, 30 days, open): Unchanged
- % Purity [2, 9]: 98.7%
- Crystal form [2, 9]: Unchanged
- % Purity [2, 10]: 98.6%
- Crystal form [2, 10]: Unchanged
- % Purity [2, 6]: 98.3%
- Crystal form [2, 6]: Unchanged
- % Purity ([2]; Initial condition, 0 days): 98.8%
- physical and chemical stability [3]: good physical and chemical stability
- Crystal form [3, 7]: Unchanged
- Crystal form [3, 8]: Unchanged
- % Purity ([3]; Initial condition): 98.8%
